According to US20100113436A1, “DISPIRO TETRAOXANE COMPOUNDS AND THEIR USE IN THE TREATMENT OF MALARIA AND/OR CANCER” (priority 2006, published 2010):
Like-named read-outs stand apart in the source and are kept apart here.

Experiments:
[1] = tested on: 3D7 strain of Plasmodium falciparum; test: In vitro antimalarial activity, 48-h [3H]-hypoxanthine incorporation assay; assay type: cell-based
Description: The 3D7 strain of Plasmodium falciparum was used in this study. This strain is known to be […] Parasites were maintained in continuous culture using the method of Jensen and Trager^4. […] Stock drug solutions were prepared in 100% dimethylsulphoxide (DMSO) and diluted to the appropriate concentration using complete medium. Assays were performed in sterile 96-well microlitre plates, each plate contained 200 μl of parasite culture (2% parasitemia, 0.5% haematocrit) with or without 10 μl drug dilutions. Each drug was tested in triplicate and parasite growth compared to control wells (which constituted 100% parasite growth). […] IC50 values were calculated by interpolation of the probit transformation of the log dose-response curve.

[2] = tested on: Salmonella typhimurium TA1535/pSK1002; test: Salmonella typhimurium SOS/umu genotoxicity assay
Text: (§1) This assay is based on the ability of DNA damaging agents to induce the expression of the umu operon. The Salmonella strains have a plasmid pSK1002 which carries an umuC-lacZ fused gene that produces a hybrid protein with β-galactosidase activity and whose expression is controlled by the umu regulatory region.

[3] = tested on: Salmonella typhimurium NM2009; test: Salmonella typhimurium SOS/umu genotoxicity assay
Text: as §1

[4] = 3D7, 3D7 strain, mean of triplicate results, Table 5, read-out: Mean IC50
[5] = 3D7, sulfonamide dispiro 1,2,4,5-tetraoxanes, Table 8, read-out: Mean IC50

| Structure (SMILES) | IC50 [1, 4] [nM] | melting point [°C] | further results |
| --- | --- | --- | --- |
| CCN(CC)CCNC(=O)CC1CCC2(CC1)OOC1(CCCCC1)OO2 [Tetraoxane 27g, N-(2-Diethylamino-ethyl)-2-(7,8,15,16-tetraoxa-dispiro[5.2.5.2]-hexadec-3-yl)-acetamide] | 5.15 |  |  |
| O=S(=O)(c1ccc(C(F)(F)F)cc1)N1CCC2(CC1)OOC1(OO2)C2CC3CC(C2)CC1C3 [Tetraoxane 39i] |  |  | IC50 [1, 5]: 20.7 nM |
| O=C1CCC2(CC1)OOC1(OO2)C2CC3CC(C2)CC1C3 [Tetraoxane 12, adamantane tetraoxane ketone] |  | 156 to 158 |  |
| O=C(CC1CCC2(CC1)OOC1(CCCCCCCCCCC1)OO2)NC1CC1 [Tetraoxane 28c, N-Cyclopropyl-2-(7,8,21,22-tetraoxa-dispiro[5.2.11.2]docos-3-yl)-acet-amide] | 18.7 | 136 to 138 |  |
| CCS(=O)(=O)N1CCC2(CC1)OOC1(CCCCCCCCCCC1)OO2 [Tetraoxane 40b] |  |  | IC50 [1, 5]: 29.1 nM |
| C1CCC2(CC1)OOC1(CCC(N3CCOCC3)CC1)OO2 [Tetraoxane 19, 4-(7,8,15,16-Tetraoxa-dispiro[5.2.5.2]hexadec-3-yl)-morpholine] | 29.4 |  |  |
| O=C(CC1CCC2(CC1)OOC1(OO2)C2CC3CC(C2)CC1C3)NCCN1CCCCC1 (stereo not shown) [Tetraoxane 29e, N-(2-Piperidin-1-yl-ethyl)-[adamantyl]acetamide] |  | 119 to 121 |  |
| O=C(CC1CCC2(CC1)OOC1(OO2)C2CC3CC(C2)CC1C3)N1CCS(=O)(=O)CC1 (stereo not shown) [Tetraoxane 32, 1-(1,1-Dioxo-1λ^6-thiommpholin-4-yl)-2-tetraoxa-dispiro-adamantyl ethanone] | 24.2 | 189 to 191 |  |
| CCOC(=O)CC1CCC2(CC1)OOC1(CCCCC1)OO2 [Tetraoxane 27a, (7,8,15,16-Tetraoxa-dispiro[5.2.5.2]hexadec-3-yl)acetic acid ethyl ester] | 24.2 |  |  |
| O=C(CC1CCC2(CC1)OOC1(CCCCC1)OO2)NCCN1CCCCC1 [Tetraoxane 27e, N-(2-Piperidin-1-yl-ethyl)-2-(7,8,15,16-tetraoxa-dispiro[5.2.5.2]-hexadec-3-yl)-acetamide] | 19.2 | 68 to 78 |  |
| O=C(CC1CCC2(CC1)OOC1(CCCCCCCCCCC1)OO2)N1CCSCC1 [Tetraoxane 28i, 2-(7,8,21,22-Tetraoxa-dispiro[5.2.11.2]docos-3-yl)-1-thiomorpholin-4-yl-ethanone] | 26.9 | 108 to 110 |  |
| O=C(CC1CCC2(CC1)OOC1(CCCCCCCCCCC1)OO2)N1CCS(=O)(=O)CC1 [Tetraoxane 31, 1-(1,1-Dioxo-1λ^6-thiomorpholin-4-yl)-2-(7,8,21,22-tetraoxa-dispiro[5.2.11.2]docos-3-yl)-ethanone] | 92.6 | 170 to 172 |  |
| O=C(CC1CCC2(CC1)OOC1(CCCCC1)OO2)NCCN1CCCC1 [Tetraoxane 27d, N-(2-Pyrrolidin-1-yl-ethyl)-2-(7,8,15,16-tetraoxa-dispiro[5.2.5.2]-hexadec-3-yl)-acetamide] | 19.1 | 110 to 112 |  |
| O=C(N1CCCCC1)N1CCC(OO)(OO)CC1 [Tetraoxane 34i, (4,4-dihydroperoxypiperidin-1-yl)(piperidin-1-yl)methanone] |  |  | IC50 ([1]; 3D7, read-out: Mean IC50): 7.2 nM |
| O=C(CC1CCC2(CC1)OOC1(OO2)C2CC3CC(C2)CC1C3)N1CCCCC1 (stereo not shown) [Tetraoxane 29m] | 0.5 |  |  |
| CC(C)S(=O)(=O)N1CCC2(CC1)OOC1(OO2)C2CC3CC(C2)CC1C3 [Tetraoxane 39c] |  |  | IC50 [1, 5]: 5.87 nM |
| CCN(CC)CCNC(=O)CC1CCC2(CC1)OOC1(CCCCCCCCCCC1)OO2 [Tetraoxane 28g, N-(2-Diethylamino-ethyl)-2-(7,8,21,22-tetraoxa-dispiro[5.2.11.2]-docos-3-yl)-acetamide] |  | 64 to 66 |  |
| O=C(CC1CCC2(CC1)OOC1(CCCCCCCCCCC1)OO2)NCCN1CCOCC1 [Tetraoxane 28f, N-(2-Morpholin-4-yl-ethyl)-2-(7,8,21,22-tetraoxa-dispiro[5.2.11.2]do-cos-3-yl)-acetamide] |  | 78 to 80 |  |
| O=C(CC1CCC2(CC1)OOC1(OO2)C2CC3CC(C2)CC1C3)N1CCSCC1 (stereo not shown) [Tetraoxane 29i, Tetraoxa-dispiro-(adamantly)-thiomorpholin-4-yl-ethanone] | 5.9 | 150 to 152 |  |
| O=S(=O)(c1ccc(Cl)cc1)N1CCC2(CC1)OOC1(OO2)C2CC3CC(C2)CC1C3 [Tetraoxane 39h] |  |  | IC50 [1, 5]: 22.7 nM |
| O=C(CC1CCC2(CC1)OOC1(CCCCCCCCCCC1)OO2)NCCN1CCCC1 [Tetraoxane 28d, N-(2-Pyrrolidin-1-yl-ethyl)-2-(7,8,21,22-tetraoxa-dispiro[5.2.11.2]do-cos-3-yl)-acetamide] |  | 108 to 110 |  |

| Structure (SMILES) | IC50 [1, 4] [nM] | melting point [°C] | further results |
| --- | --- | --- | --- |
| CS(=O)(=O)N1CCC2(CC1)OOC1(OO2)C2CC3CC(C2)CC1C3 [Tetraoxane 39a] |  |  | IC50 [1, 5]: 10.2 nM |
| O=S(=O)(CC(F)(F)F)N1CCC2(CC1)OOC1(OO2)C2CC3CC(C2)CC1C3 [Tetraoxane 39e] |  |  | IC50 [1, 5]: 14.3 nM |
| CC(C)S(=O)(=O)N1CCC2(CC1)OOC1(CCCCCCCCCCC1)OO2 [Tetraoxane 40c] |  |  | IC50 [1, 5]: 86.4 nM |
| O=C1CCC2(CC1)OOC1(CCCCC1)OO2 [Tetraoxane 10, 7,8,15,16-Tetraoxa-dispiro[5.2.5.2]hexadecan-3-one] | 6 | 78 to 80 |  |
| CCS(=O)(=O)N1C2CCC1CC1(C2)OOC2(OO1)C1CC3CC(C1)CC2C3 (stereo not shown) [Tetraoxane 41d, Tropinone derived 1,2,4,5-tetraoxane] |  |  | IC50 [1, 5]: 60.6 nM |
| O=S(=O)(c1ccc(F)cc1)N1CCC2(CC1)OOC1(OO2)C2CC3CC(C2)CC1C3 [Tetraoxane 39g] |  |  | IC50 [1, 5]: 16.7 nM |
| O=C(CC1CCC2(CC1)OOC1(OO2)C2CC3CC(C2)CC1C3)NCCN1CCCC1 (stereo not shown) [Tetraoxane 29d] |  | 142 to 144 |  |
| O=C(CC1CCC2(CC1)OOC1(CCCCCCCCCCC1)OO2)NCCN1CCCCC1 [Tetraoxane 28e, N-(2-Piperidin-1-yl-ethyl)-2-(7,8,21,22-tetraoxadispiro[5.2.11.2]-docos-3-yl)-acetamide] |  | 96 to 98 |  |
| CC(C)(C)NCc1cc(Nc2ccnc3cc(Cl)ccc23)ccc1Cl [Tetraoxane D535, 4′Chloro N-tertbutyl amodiaquin, reference compound] |  |  | MCE TA1535 (Maximum Co w/o effects on bacteria growth or β-galactosidase production) [2]: 140 µM; Max. Fold Increase ([2]; −S9): 1.10 ± 0.07 fold; Potential genotox ([2]; −S9): NEG; MCE NM2009 (Maximum Co w/o effects on bacteria growth or beta-galactosidase production) [3]: 140 µM; Potential genotox [3]: NEG |
| O=S(=O)(c1ccccc1)N1CCC2(CC1)OOC1(CCCCCCCCCCC1)OO2 [Tetraoxane 40d] |  |  | IC50 [1, 5]: 131 nM |
| COC(=O)[C@@H](NC(=O)CC1CCC2(CC1)OOC1(OO2)C2CC3CC(C2)CC1C3)C(C)C (stereo in doubt) [Tetraoxane 29j, Adamantyl acetamide] |  | 108 to 110 |  |
| O=C(CC1CCC2(CC1)OOC1(CCCCC1)OO2)NCCN1CCOCC1 [Tetraoxane 27f, N-(2-Morpholin-4-yl-ethyl)-2-(7,8,15,16-tetraoxa-dispiro[5.2.5.2]-hexadec-3-yl)-acetamide] | 19.1 |  |  |
| CS(=O)(=O)N1CCC2(CC1)OOC1(CCCCCCCCCCC1)OO2 [Tetraoxane 40a] |  |  | IC50 [1, 5]: 27.8 nM |
| O=C(N1CCCCC1)N1CCC2(CC1)OOC1(CCCCC1)OO2 [Tetraoxane 34k] |  |  | IC50 ([1]; 3D7, read-out: Mean IC50): 7 nM |
| O=C1CCC2(CC1)OOC1(CCCCCCCCCCC1)OO2 [Tetraoxane 11, 7,8,21,22-Tetraoxa-dispiro[5.2.11.2]docosan-3-one] |  | 108 to 110 |  |
| CC(C)CN1CCN(C(=O)CC2CCC3(CC2)OOC2(OO3)C3CC4CC(C3)CC2C4)CC1 (stereo not shown) [Tetraoxane 29s] | 2.7 |  |  |
| C[C@@H]1CC[C@H]2[C@@H](C)C(=O)O[C@@H]3O[C@@]4(C)CC[C@@H]1[C@]32OO4 [Artemisinin, reference compound] | 9.5 |  | IC50 [1, 5]: 9.2 nM |
| O=C(CC1CCC2(CC1)OOC1(CCCCCCCCCCC1)OO2)N1CCOCC1 [Tetraoxane 28h, 1-Morpholin-4-yl-2-(7,8,21,22-tetraoxa-dispiro[5.2.11.2]docos-3-yl)-ethanone] | 23.7 | 118 to 120 |  |
| O=C1CCN(C(=O)N2CCOCC2)CC1 [Tetraoxane 34f, 1-(Morpholine-4-carbonyl)-piperidin-4-one] |  |  | IC50 ([1]; 3D7, read-out: Mean IC50): 4.7 nM |
| C1CCC2(CC1)OOC1(CCC(NC3CC3)CC1)OO2 [Tetraoxane 14, Cyclopropyl-(7,8,15,16-tetraoxa-dispiro[5.2.5.2]hexadec-3-yl)-amine] | 20 |  |  |
